Laboratory results published in patent US5030760A, “Tetrahydrophthalimides, and their production and use” (Sumitomo Chemical Company, Ltd., priority 1981, dated 1991).

Experiments:
velvetleaf [1] = test: Test Example 4, pre-emergence treatment, herbicidal activity; format: in vivo, Abutilon theophrasti; details: 20 days; also: ranges in brackets are in %
Method: (§1) The application of the tetrahydrophthalimides (I) as herbicides will be illustratively shown in the following Examples wherein the phytotoxicity to cultivated plants and the herbicidal activity on weeds were evaluated as follows: the aerial parts of the test plants were cut off and weighed (fresh weight); the percentage of the fresh weight of the treated plant to that of the untreated plant was calculated with the latter fresh weight taken as 100; and the crop damage and the herbicidal activity were evaluated by the standard given in the table below. The rating values of phytotoxicity, 0 and 1, and those of herbicidal effect, 5 and 4, are generally regarded as satisfactory to protect cultivated plants and control weeds, respectively. The rating values in the paddy field test alone were calculated from the dry weight of the test plants.
(§2) Plastic beakers (diameter, 10 cm; height, 10 cm) were filled with upland field soil, and the seeds of corn, cotton and soybean and the seeds of morningglory, velvetleaf, Johnsongrass and green foxtail were separately sown in the beakers. A designed amount of the test compound was sprayed over the top by means of a small hand sprayer. After the spraying, the test plants were grown for 20 days in the greenhouse, and herbicidal activity and phytotoxicity were examined. In this pre-emergence treatment, the test compounds were formulated into an emulsifiable concentrate according to Preparation Example 2 and applied at a spray volume of 5 liters per are by dispersing it in water with the addition of a spreading agent.

cotton = test: Test Example 4, pre-emergence treatment, phytotoxicity to cotton; format: in vivo; details: 20 days; also: ranges in brackets are in %
Method: as §1, §2

corn [2] = test: Test Example 1, foliar treatment, phytotoxicity to corn; format: in vivo; details: 3 weeks; also: ranges in brackets are in %
Method: as §1
(§3) Plastic beakers (diameter, 10 cm; height, 10 cm) were filled with upland field soil, and the seeds of corn, barnyardgrass, wild oat, wild mustard and velvetleaf were separately sown in the beakers and grown for 2 weeks in the greenhouse. A designed amount of the test compound was sprayed to the foliage of the test plants by means of a small hand sprayer. After the spraying, the test plants were further grown for 3 weeks in the greenhouse, and herbicidal activity was examined. In this foliar treatment, the test compounds were formulated into an emulsifiable concentrate according to Preparation Example 2 and applied at a spray volume of 5 liters per are by dispersing it in water with the addition of a spreading agent.

Johnsongrass = test: Test Example 4, pre-emergence treatment, herbicidal activity; format: in vivo, Sorghum halepense; details: 20 days; also: ranges in brackets are in %
Method: as §1, §2

velvetleaf [3] = test: Test Example 1, foliar treatment, herbicidal activity; format: in vivo, Abutilon theophrasti; details: 3 weeks; also: ranges in brackets are in %
Method: as §1, §3

corn [4] = test: Test Example 4, pre-emergence treatment, phytotoxicity to corn; format: in vivo; details: 20 days; also: ranges in brackets are in %
Method: as §1, §2

green foxtail = test: Test Example 4, pre-emergence treatment, herbicidal activity; format: in vivo, Setaria viridis; details: 20 days; also: ranges in brackets are in %
Method: as §1, §2

wild mustard = test: Test Example 1, foliar treatment, herbicidal activity; format: in vivo, Brassica kaber; details: 3 weeks
Method: as §1, §3

morningglory = test: Test Example 4, pre-emergence treatment, herbicidal activity; format: in vivo; details: 20 days; also: ranges in brackets are in %
Method: as §1, §2

wild oat = test: Test Example 1, foliar treatment, herbicidal activity; format: in vivo, Avena fatua; details: 3 weeks; also: ranges in brackets are in %
Method: as §1, §3

barnyardgrass = test: as above; format: in vivo, Echinochloa crus-galli; details: 3 weeks; also: ranges in brackets are in %
Method: as §1, §3

soybean = test: Test Example 4, pre-emergence treatment, phytotoxicity to soybean; format: in vivo; details: 20 days; also: ranges in brackets are in %
Method: as §1, §2

velvetleaf [5] = test: Test Example 3, soil surface spraying, herbicidal activity; format: in vivo, Abutilon theophrasti; details: 20 days; also: ranges in brackets are in %
Method: as §1
(§4) Plastic trays (35 cm×25 cm×15 cm) were filled with upland field soil, and the seeds of tall morningglory, velvetleaf and sicklepod and the seeds of corn were sown therein. A designed amount of the test compounds formulated into a wettable powder according to Preparation Example 1 was dispersed in water and applied by spraying at a spray volume of 5 liters per are to the whole surface of the soil. After the spraying, the test plants were placed in a greenhouse and grown for 20 days, and herbicidal activity and phytotoxicity were examined.

corn [6] = test: Test Example 3, soil surface spraying, phytotoxicity to corn; format: in vivo; details: 20 days; also: ranges in brackets are in %
Method: as §1, §4

tall morningglory = test: Test Example 3, soil surface spraying, herbicidal activity; format: in vivo, Ipomoea purpurea; details: 20 days; also: ranges in brackets are in %
Method: as §1, §4

sicklepod = test: as above; format: in vivo, Cassia obtusifolia; details: 20 days; also: ranges in brackets are in %
Method: as §1, §4

Structure (SMILES) | Herbicidal activity, Velvetleaf (velvetleaf [1]; 2.5 g/are) | Herbicidal activity, Velvetleaf (velvetleaf [1]; 10 g/are) | Phytotoxicity, Cotton (cotton; 2.5 g/are) | Phytotoxicity, Cotton (cotton; 10 g/are) | Phytotoxicity, Corn (corn [2]; 1.25 g/are) | Phytotoxicity, Corn (corn [2]; 5 g/are) | Herbicidal activity, Johnsongrass (Johnsongrass; 2.5 g/are) | Herbicidal activity, Johnsongrass (Johnsongrass; 10 g/are) | Herbicidal activity, Velvetleaf (velvetleaf [3]; 1.25 g/are) | Herbicidal activity, Velvetleaf (velvetleaf [3]; 5 g/are) | Phytotoxicity, Corn (corn [4]; 2.5 g/are) | Phytotoxicity, Corn (corn [4]; 10 g/are) | Herbicidal activity, Green foxtail (green foxtail; 10 g/are) | Herbicidal activity, Wild mustard (wild mustard; 1.25 g/are) | Herbicidal activity, Wild mustard (wild mustard; 5 g/are) | Herbicidal activity, Morningglory (morningglory; 10 g/are) | Herbicidal activity, Wild cat (wild oat; 1.25 g/are) | Herbicidal activity, Wild cat (wild oat; 5 g/are) | Herbicidal activity, Barnyardgrass (barnyardgrass; 1.25 g/are) | Herbicidal activity, Barnyardgrass (barnyardgrass; 5 g/are) | also measured
CCC(C)Oc1cc(N2C(=O)C3=C(CCCC3)C2=O)c(F)cc1Br (centres unmarked) [compound 15] | 4 (1-10) | 5 (0) | 0 (100) | 1 (90-99) | 0 (100) | 1 (90-99) | 4 (1-10) | 4 (1-10) | 5 (0) | 5 (0) | 0 (100) | 0 (100) | 4 (1-10) | 5 (0) | 5 (0) | 5 (0) | 2 (21-40) | 5 (0) | 2 (21-40) | 5 (0) | Phytotoxicity, Soybean (soybean; 2.5 g/are): 0 (100); Phytotoxicity, Soybean (soybean; 10 g/are): 1 (90-99)
CCCOc1cc(N2C(=O)C3=C(CCCC3)C2=O)c(F)cc1Cl [compound 3] | 5 (0) | 5 (0) | – | – | 0 (100) | 1 (90-99) | 4 (1-10) | 5 (0) | 5 (0) | 5 (0) | 0 (100) | 1 (90-99) | 5 (0) | 5 (0) | 5 (0) | 4 (1-10) | 4 (1-10) | 5 (0) | 4 (1-10) | 5 (0) | Herbicidal activity, Velvetleaf (velvetleaf [5]; 5 g/are): 5 (0); Herbicidal activity, Velvetleaf (velvetleaf [5]; 10 g/are): 5 (0); Phytotoxicity, Corn (corn [6]; 5 g/are): 0 (100); Phytotoxicity, Corn (corn [6]; 10 g/are): 0 (100); Herbicidal activity, Tall morningglory (tall morningglory; 5 g/are): 4 (1-10); Herbicidal activity, Tall morningglory (tall morningglory; 10 g/are): 5 (0); Herbicidal activity, Green foxtail (green foxtail; 2.5 g/are): 4 (1-10); Herbicidal activity, Morningglory (morningglory; 2.5 g/are): 4 (1-10); Herbicidal activity, Sicklepod (sicklepod; 5 g/are): 4 (1-10); Herbicidal activity, Sicklepod (sicklepod; 10 g/are): 5 (0)
CCOc1cc(N2C(=O)C3=C(CCCC3)C2=O)c(F)cc1Br [compound 13] | 4 (1-10) | 5 (0) | 0 (100) | 1 (90-99) | 0 (100) | 1 (90-99) | 4 (1-10) | 5 (0) | 5 (0) | 5 (0) | 0 (100) | 0 (100) | 5 (0) | 5 (0) | 5 (0) | 5 (0) | 2 (21-40) | 5 (0) | 2 (21-40) | 5 (0) | Herbicidal activity, Green foxtail (green foxtail; 2.5 g/are): 4 (1-10); Phytotoxicity, Soybean (soybean; 2.5 g/are): 0 (100); Phytotoxicity, Soybean (soybean; 10 g/are): 1 (90-99)
CCCOc1cc(N2C(=O)C3=C(CCCC3)C2=O)c(F)cc1Br [compound 14] | 4 (1-10) | 5 (0) | 0 (100) | 0 (100) | 0 (100) | 1 (90-99) | 4 (1-10) | 4 (1-10) | 5 (0) | 5 (0) | 0 (100) | 0 (100) | 4 (1-10) | 5 (0) | 5 (0) | 4 (1-10) | 3 (11-20) | 5 (0) | 3 (11-20) | 5 (0) | Herbicidal activity, Green foxtail (green foxtail; 2.5 g/are): 4 (1-10); Phytotoxicity, Soybean (soybean; 2.5 g/are): 0 (100); Phytotoxicity, Soybean (soybean; 10 g/are): 1 (90-99)
CCOc1cc(N2C(=O)C3=C(CCCC3)C2=O)c(F)cc1Cl [compound 2] | 5 (0) | 5 (0) | 0 (100) | 0 (100) | 0 (100) | 1 (90-99) | 4 (1-10) | 5 (0) | 5 (0) | 5 (0) | 0 (100) | 1 (90-99) | 5 (0) | 5 (0) | 5 (0) | 4 (1-10) | 3 (11-20) | 5 (0) | 3 (11-20) | 5 (0) | Herbicidal activity, Velvetleaf (velvetleaf [5]; 5 g/are): 5 (0); Herbicidal activity, Velvetleaf (velvetleaf [5]; 10 g/are): 5 (0); Phytotoxicity, Corn (corn [6]; 5 g/are): 0 (100); Phytotoxicity, Corn (corn [6]; 10 g/are): 0 (100); Herbicidal activity, Tall morningglory (tall morningglory; 5 g/are): 4 (1-10); Herbicidal activity, Tall morningglory (tall morningglory; 10 g/are): 4 (1-10); Herbicidal activity, Green foxtail (green foxtail; 2.5 g/are): 4 (1-10); Herbicidal activity, Morningglory (morningglory; 2.5 g/are): 4 (1-10); Phytotoxicity, Soybean (soybean; 2.5 g/are): 0 (100); Phytotoxicity, Soybean (soybean; 10 g/are): 0 (100); Herbicidal activity, Sicklepod (sicklepod; 5 g/are): 4 (1-10); Herbicidal activity, Sicklepod (sicklepod; 10 g/are): 5 (0)
